# Measurements published in ChEMBL document CHEMBL1137885, “P4 and P1' optimization of bicycloproline P2 bearing tetrapeptidyl alpha-ketoamides as HCV protease inhibitors” (Bioorg Med Chem Lett, 2004).
# What was measured:
# [1] = target: Prothrombin (Homo sapiens, UniProt P00734); assay: Binding affinity towards human thrombin
# [2] = target: Chymotrypsinogen B (Homo sapiens, UniProt P17538); assay: Binding affinity towards human Chymotrypsinogen
# [3] = target: NS3 (Hepatitis C virus, UniProt A3EZJ3); assay: Inhibition of HCV NS3 protease in the pNA based inhibition assay; set-up: species or system Hepacivirus hominis
# NS3, sequence (A3EZJ3 whole entry): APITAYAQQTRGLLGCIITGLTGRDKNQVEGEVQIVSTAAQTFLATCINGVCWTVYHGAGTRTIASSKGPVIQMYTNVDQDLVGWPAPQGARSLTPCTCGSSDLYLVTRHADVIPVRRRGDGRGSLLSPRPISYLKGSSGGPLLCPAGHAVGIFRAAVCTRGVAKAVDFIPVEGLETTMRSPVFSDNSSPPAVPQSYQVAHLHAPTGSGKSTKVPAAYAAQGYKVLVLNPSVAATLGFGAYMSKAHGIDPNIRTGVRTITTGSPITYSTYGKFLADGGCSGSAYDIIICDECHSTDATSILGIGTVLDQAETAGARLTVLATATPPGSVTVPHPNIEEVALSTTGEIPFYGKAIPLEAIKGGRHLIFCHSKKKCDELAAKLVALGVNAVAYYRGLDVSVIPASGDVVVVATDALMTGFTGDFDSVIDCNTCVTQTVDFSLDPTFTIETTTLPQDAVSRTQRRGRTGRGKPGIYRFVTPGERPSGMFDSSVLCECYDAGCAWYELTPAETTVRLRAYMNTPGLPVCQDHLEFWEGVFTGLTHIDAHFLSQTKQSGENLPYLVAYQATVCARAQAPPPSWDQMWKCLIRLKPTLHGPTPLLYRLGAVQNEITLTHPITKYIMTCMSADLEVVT
# [4] = system: Huh-7; assay: Cytotoxic concentration against Huh-7 liver cells in XTT cytotoxicity assay; format: functional; details: Homo sapiens
# [5] = Selectivity for HCV NS3 over human elastase
# [6] = target: Plasminogen (Homo sapiens, UniProt P00747); assay: Binding affinity towards human plasmin
# Plasminogen, sequence (P00747 97-580 limits assumed): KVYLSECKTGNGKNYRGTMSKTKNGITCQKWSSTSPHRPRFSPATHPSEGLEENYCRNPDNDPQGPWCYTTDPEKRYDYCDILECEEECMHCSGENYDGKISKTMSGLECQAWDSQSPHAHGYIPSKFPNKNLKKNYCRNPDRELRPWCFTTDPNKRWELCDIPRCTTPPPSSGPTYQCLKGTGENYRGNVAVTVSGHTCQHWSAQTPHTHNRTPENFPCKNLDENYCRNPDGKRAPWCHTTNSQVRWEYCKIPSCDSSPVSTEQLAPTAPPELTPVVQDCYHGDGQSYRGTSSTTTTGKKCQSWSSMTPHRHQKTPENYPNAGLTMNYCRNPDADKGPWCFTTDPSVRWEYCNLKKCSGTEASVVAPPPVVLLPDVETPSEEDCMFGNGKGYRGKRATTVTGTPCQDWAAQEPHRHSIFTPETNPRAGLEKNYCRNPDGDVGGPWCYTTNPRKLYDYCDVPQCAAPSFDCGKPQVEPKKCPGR
# Plasminogen, sequence (P00747 581-810 limits assumed): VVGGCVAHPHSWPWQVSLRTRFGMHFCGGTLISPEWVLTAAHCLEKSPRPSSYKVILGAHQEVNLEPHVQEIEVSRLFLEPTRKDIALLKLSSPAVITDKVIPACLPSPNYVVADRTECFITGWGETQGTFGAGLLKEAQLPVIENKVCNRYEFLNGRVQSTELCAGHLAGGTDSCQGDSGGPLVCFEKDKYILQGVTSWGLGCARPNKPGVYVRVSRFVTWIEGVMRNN
# [7] = target: Cathepsin B (Homo sapiens, UniProt P07858); assay: Binding affinity towards human cathepsin B
# [8] = system: Hepatitis C virus; assay: Inhibitory concentration against hepatitis C virus in replicon assay; format: functional, organism-based, Hepacivirus hominis
# [9] = target: Plasma kallikrein (Homo sapiens, UniProt P03952); assay: Binding affinity towards human kallikrein
# Plasma kallikrein, sequence (P03952 20-390 limits assumed): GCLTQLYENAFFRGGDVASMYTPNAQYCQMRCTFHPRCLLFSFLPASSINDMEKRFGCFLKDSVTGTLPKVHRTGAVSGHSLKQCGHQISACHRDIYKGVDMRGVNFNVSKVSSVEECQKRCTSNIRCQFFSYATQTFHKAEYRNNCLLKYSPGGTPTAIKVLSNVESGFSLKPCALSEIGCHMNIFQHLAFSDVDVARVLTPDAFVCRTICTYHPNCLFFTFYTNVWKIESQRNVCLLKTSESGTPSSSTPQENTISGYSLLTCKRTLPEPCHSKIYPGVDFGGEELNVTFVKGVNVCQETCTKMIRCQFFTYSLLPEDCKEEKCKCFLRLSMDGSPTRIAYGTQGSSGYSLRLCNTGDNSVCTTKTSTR
# Plasma kallikrein, sequence (P03952 391-638 limits assumed): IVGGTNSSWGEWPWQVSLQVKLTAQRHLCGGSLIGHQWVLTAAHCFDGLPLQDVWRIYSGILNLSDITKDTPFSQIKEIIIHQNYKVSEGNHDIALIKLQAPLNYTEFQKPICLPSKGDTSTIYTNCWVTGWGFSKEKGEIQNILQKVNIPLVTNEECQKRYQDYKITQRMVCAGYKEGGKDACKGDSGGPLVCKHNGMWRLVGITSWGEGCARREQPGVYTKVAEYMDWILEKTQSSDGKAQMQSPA
# [10] = system: Huh-7; assay: Ratio of CC50 to that of IC50 value; format: functional, Homo sapiens
# [11] = target: Procathepsin L (Homo sapiens, UniProt P07711); assay: Selectivity for HCV NS3 over human cathepsin L
# Procathepsin L, sequence (P07711 whole entry): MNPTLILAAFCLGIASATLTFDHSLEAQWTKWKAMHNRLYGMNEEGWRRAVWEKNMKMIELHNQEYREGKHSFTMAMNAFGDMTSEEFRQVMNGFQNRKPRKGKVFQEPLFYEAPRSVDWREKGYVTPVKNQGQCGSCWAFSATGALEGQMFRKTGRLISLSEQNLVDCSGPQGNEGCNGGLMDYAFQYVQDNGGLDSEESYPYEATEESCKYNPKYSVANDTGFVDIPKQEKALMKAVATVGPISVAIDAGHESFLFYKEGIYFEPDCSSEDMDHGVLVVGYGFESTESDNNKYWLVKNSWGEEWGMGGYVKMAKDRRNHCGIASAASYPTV
# [12] = target: Trypsin (Homo sapiens, UniProt P07477+P07478+P35030); assay: Binding affinity towards human trypsin; format: protein assay
# Chymotrypsinogen B, sequence (P17538 34-164 limits assumed, other chains not shown): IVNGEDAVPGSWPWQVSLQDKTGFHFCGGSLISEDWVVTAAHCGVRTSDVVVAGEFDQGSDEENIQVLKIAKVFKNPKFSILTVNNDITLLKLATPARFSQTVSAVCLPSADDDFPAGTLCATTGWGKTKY
# Chymotrypsinogen B, sequence (P17538 167-263 limits assumed, other chains not shown): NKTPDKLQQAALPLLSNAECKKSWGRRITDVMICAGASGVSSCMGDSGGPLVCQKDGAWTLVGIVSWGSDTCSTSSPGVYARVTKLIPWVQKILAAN
SMILES,Ki [1],Ki [2],Ki [3],selectivity ratio [5],Ki [6],Ki [7],IC50 [8],Ki [9],selectivity ratio [11],Ki [12],CC50 [4],Ratio [10]
CCC[C@H](NC(=O)[C@@H]1C2CCCC2CN1C(=O)[C@@H](NC(=O)[C@@H](NC(=O)c1cnccn1)C(C)(C)C)C(C)(C)C)C(=O)C(=O)NC1CC1 (stereo partly drawn),> 50 µM,> 50 µM,0.16 µM,102,> 50 µM,3.9 µM,1.29 µM,> 50 µM,123,> 50 µM,> 100 µM,>77
CCCC(NC(=O)[C@@H]1[C@H]2CCC[C@H]2CN1C(=O)[C@@H](NC(=O)[C@@H](NC(=O)c1cnccn1)C1CCCCC1)C(C)(C)C)C(=O)C(=O)NC1CC1 (stereo partly drawn),> 50 µM,> 50 µM,0.07 µM,62,> 50 µM,3 µM,0.55 µM,> 50 µM,134,> 50 µM,86.5 µM,157
CCCC(NC(=O)[C@@H]1C2CCCC2CN1C(=O)[C@@H](NC(=O)[C@H](CC1CCCCC1)NC(=O)c1cnccn1)C(C)(C)C)C(=O)C(=O)NC1CC1 (stereo partly drawn),,,0.65 µM,,,,2.81 µM,,,,45.5 µM,16
CCC[C@H](NC(=O)[C@@H]1C2CCCC2CN1C(=O)[C@@H](NC(=O)[C@@H](NC(=O)c1cnccn1)c1ccccc1)C(C)(C)C)C(=O)C(=O)NC1CC1 (stereo partly drawn),,,0.65 µM,,,,2.81 µM,,,,58.6 µM,21
CCC[C@H](NC(=O)[C@@H]1C2CCCC2CN1C(=O)[C@@H](NC(=O)[C@@H](NC(=O)c1cnccn1)[C@@H](C)OC)C(C)(C)C)C(=O)C(=O)NC1CC1 (stereo partly drawn),> 50 µM,> 50 µM,0.15 µM,126,> 50 µM,7.3 µM,4.35 µM,> 50 µM,146,> 50 µM,> 100 µM,>22
CCCC(NC(=O)[C@@H]1[C@H]2CCC[C@H]2CN1C(=O)[C@@H](NC(=O)[C@@H](NC(=O)c1cnccn1)C(C)C)C(C)(C)C)C(=O)C(=O)NC1CC1 (stereo partly drawn),> 50 µM,> 50 µM,,,> 50 µM,1.6 µM,,> 50 µM,,> 50 µM,> 100 µM,
CC(C)(C)[C@H](NC(=O)[C@@H](NC(=O)c1cnccn1)C1CCCCC1)C(=O)N1CC2CCCC2[C@H]1C(=O)NC(CC(F)F)C(=O)C(=O)NC1CC1 (stereo partly drawn),> 50 µM,> 50 µM,0.02 µM,392,> 50 µM,40 µM,0.4 µM,> 50 µM,760,> 50 µM,> 100 µM,250

# Now from value to compound, other results behind:
Ki [1],Ki [2],Ki [3],selectivity ratio [5],Ki [6],Ki [7],IC50 [8],Ki [9],selectivity ratio [11],Ki [12],SMILES,CC50 [4],Ratio [10]
> 50 µM,> 50 µM,0.08 µM,81,> 50 µM,13 µM,1.07 µM,> 50 µM,107,> 50 µM,CCCC(NC(=O)[C@@H]1C2CCCC2CN1C(=O)[C@@H](NC(=O)[C@@H](NC(=O)c1cnccn1)C1CCCCC1)C(C)(C)C)C(=O)C(=O)N[C@H](C)CC (stereo partly drawn),69.2 µM,65
,,0.25 µM,,,,1 µM,,,,CCCC(NC(=O)[C@@H]1C2CCCC2CN1C(=O)[C@@H](NC(=O)[C@@H](NC(=O)c1cnccn1)C1CCCCC1)C(C)(C)C)C(=O)C(=O)NC[C@@H](C)CC (stereo partly drawn),31.7 µM,32
> 50 µM,> 50 µM,0.09 µM,29,> 50 µM,283 µM,0.21 µM,> 50 µM,51,> 50 µM,CCCC(NC(=O)[C@@H]1C2CCCC2CN1C(=O)[C@@H](NC(=O)[C@@H](NC(=O)c1cnccn1)C1CCCCC1)C(C)(C)C)C(=O)C(=O)N[C@H](C)c1ccccc1 (stereo partly drawn),22 µM,105
> 50 µM,> 50 µM,0.08 µM,36,> 50 µM,10 µM,1.44 µM,> 50 µM,15,> 50 µM,CCC[C@H](NC(=O)[C@@H]1C2CCCC2CN1C(=O)[C@@H](NC(=O)[C@@H](NC(=O)c1cnccn1)[C@@H](C)CC)C(C)(C)C)C(=O)C(=O)NC1CC1 (stereo partly drawn),> 100 µM,>69
